Laboratory results taken from patent US20030171293A1, “Neuropeptide receptor and uses thereof” (Pfizer Inc., priority 2002, published 2003).
pEC50: −log10 of the molar value. Where a SMILES comes first, the peptide text is derived from it. Bridges are numbered along the chain shown (N, C = ends). [ ]: non-standard residue; d: D form. dTrp(2-Me) = Cc1[nH]c2ccccc2c1C[C@@H](N)C(=O)O; d2Nal = N[C@H](Cc1ccc2ccccc2c1)C(=O)O; Nle = CCCC[C@H](N)C(=O)O

What was measured:
receptor MRGX2 = biological target: T1, receptor MRGX2 (Homo sapiens, UniProt Q96LB1); assay: Functional assay measuring intracellular calcium mobilisation (FLIPR); type: cell-based; conditions: for pEC50: Preliminary EC50 data for receptor MRGX2, transiently transfected cells, Fluo3 calcium response; for response of MRGX2 receptor: at a concentration of 1 μM
T1 construct: expressed in transfected cells; host or cells: host line such as HEK293 or CHO-K1, stably expressing Galpha15/Gqi-5
T1 sequence (Q96LB1 1-330): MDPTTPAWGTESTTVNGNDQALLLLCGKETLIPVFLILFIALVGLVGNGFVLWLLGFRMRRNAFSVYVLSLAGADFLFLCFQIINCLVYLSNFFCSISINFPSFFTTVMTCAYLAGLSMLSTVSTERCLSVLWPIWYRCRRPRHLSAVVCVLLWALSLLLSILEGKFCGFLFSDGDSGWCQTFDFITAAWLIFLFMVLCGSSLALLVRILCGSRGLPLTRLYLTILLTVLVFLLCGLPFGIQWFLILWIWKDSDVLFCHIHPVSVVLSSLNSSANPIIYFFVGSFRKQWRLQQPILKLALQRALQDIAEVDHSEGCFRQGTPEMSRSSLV
Experimental: 5×10^6 cells of a suitable host cell line, chosen to express a low number of endogenous receptors (e.g. HEK293 or CHO-K1) and engineered to stably express Gα15/Gqi-5, were transiently transfected with 7.5 μg of cDNA encoding receptor MRGX2 in a suitable mammalian cell expression vector, or vector alone, using Lipofectamine Plus® reagent (Gibco BRL) as per the manufacturer's protocol. If the cells were intended for a ligand binding assay or microphysiometry, they were incubated for 24-72 hours post transfection, and then harvested. If a microtitre plate-based assay was intended, the cells were detached from the flask using Trypsin/EDTA solution (LTI) 24 hours post transfection, and seeded into e.g. a black sided, Poly-D-lysine-treated, 96-well plate (Becton Dickinson) at 5×10^4 cells/well density. The plates were left overnight to allow the cells to adhere to the bottom of the wells.
Fluorescence Imaging Plate Reader (FLIPR®) technology was employed as a means to detect activation of receptor MRGX2 by various potential GPCR agonists.
24 hrs post-transfection, the cells were detached from the flask using Trypsin/EDTA solution (LTI) and seeded into a black sided, Poly-D-lysine-treated, 96-well plate (Becton Dickinson) at 5×10^4 cells/well density. The plates were left overnight to allow the cells to adhere to the bottom of the wells. The medium was removed from the cells and replaced with 100 μl warm (37° C.) dye loading solution (50 μg Fluo3 (Molecular Probes) in 20 μl DMSO+20% pluronic acid in DMSO, added to 11 ml Dulbecco's Modified Eagles Medium containing 1× Probenecid (100× Probenecid—0.71 g Probenecid was dissolved in 5 ml 1 M NaOH and 5 ml Dulbeccos' Phosphate Buffered Saline (PBS), per plate; Probenecid (Molecular Probes) inhibits activity of the anion transport protein, thus improving dye loading). The plates were then incubated for 1 hr at 37° C. Plates were subsequently washed with 250 μl of wash buffer per well (5 ml 100× Probenecid stock+495 ml PBS, pH 7.4) 4 times. The plates were returned to the 37° C./5%CO2 incubator for 30 mins prior to processing within the FLIPR® instrument. The FLIPR® processing involved reading the fluorescence for all samples for 2 minutes; during this time the fluorescence baseline was determined for 10 seconds. The desired amount of compounds (i.e. potential GPCR agonists) was then automatically transferred to the wells and the fluorescence was continuously monitored for the remainder of the time. All compounds were diluted in wash buffer.

guinea pig ileum = conditions: GPI assay; cited from earlier work
food intake = conditions: i.c.v., free feeding rats; maximal response at 1 nmol dose; cited from earlier work

Compound | pEC50 (receptor MRGX2) | other results
NCCC[C@@H](NC(=O)[C@@H]1CCCN1C(=O)[C@@H]1CSSCCC(=O)N[C@@H](Cc2ccc(O)cc2)C(=O)N[C@@H](Cc2ccccc2)C(=O)N[C@@H](CCC(N)=O)C(=O)N[C@@H](CC(N)=O)C(=O)N1)C(=O)NCC(N)=O [(Deamino-Cysl,D-Orn^8) Vasopressin] | < 5.00 | –
CC[C@H](C)[C@H](NC(=O)[C@H](CCCNC(=N)N)NC(=O)[C@H](CCCNC(=N)N)NC(=O)[C@H](CC(C)C)NC(=O)[C@H](Cc1ccccc1)NC(=O)CNC(=O)CNC(=O)[C@@H](N)Cc1ccc(O)cc1)C(=O)N[C@@H](CCCNC(=N)N)C(=O)N1CCC[C@H]1C(=O)N[C@@H](CCCCN)C(=O)N[C@@H](CC(C)C)C(=O)N[C@@H](CCCCN)C(=O)N[C@@H](Cc1c[nH]c2ccccc12)C(=O)N[C@@H](CC(=O)O)C(=O)N[C@@H](CC(N)=O)C(=O)N[C@@H](CCC(N)=O)C(=O)O [Dynorphin A] | 5.73 | potency relative to [Leu]-enkephalin (guinea pig ileum): 700 times; potency relative to normorphine (guinea pig ileum): about 200 times; potency relative to β-endorphin (guinea pig ileum): 50 times
CC(=O)N[C@H]1CSSC[C@@H](C(=O)N2CCC[C@H]2C(=O)N2CCC[C@H]2C(=O)N[C@@H](CCCCN)C(=O)N[C@@H](CC(=O)O)C(N)=O)NC(=O)CNC(=O)[C@H](Cc2c[nH]c3ccccc23)NC(=O)[C@H](CCCNC(=N)N)NC(=O)[C@@H](Cc2ccc3ccccc3c2)NC(=O)[C@H](Cc2c[nH]cn2)NC(=O)[C@H](CCC(=O)O)NC1=O [HS014] (Ac-CEH[d2Nal]RWGCPPKD-NH2; disulfide 1-8; N-terminus and C-terminus assumed) | < 5.00 | –
CCCC[C@@H]1NC(=O)[C@@H](NC(C)=O)CSSC[C@@H](C(N)=O)NC(=O)CNC(=O)[C@H](Cc2c[nH]c3ccccc23)NC(=O)[C@H](CCCNC(=N)N)NC(=O)[C@@H](Cc2ccc3ccccc3c2)NC(=O)[C@H](Cc2c[nH]cn2)NC(=O)[C@H](CCCNC(=N)N)NC1=O [HS024, (Acetyl-Cys^3,Nle^4,Arg^5,D-2-Nal^7,Cys^11)-α-MSH (3-11) amide] (Ac-C[Nle]RH[d2Nal]RWGC-NH2; disulfide 1-9 (inferred)) | – | effect on food intake (food intake): dose dependant increase in food intake
Cc1[nH]c2ccccc2c1C[C@@H](NC(=O)[C@@H](N)Cc1cnc[nH]1)C(=O)N[C@@H](C)C(=O)N[C@@H](Cc1c[nH]c2ccccc12)C(=O)N[C@H](Cc1ccccc1)C(=O)N[C@@H](CCCCN)C(N)=O [Hexarelin] (H-H[dTrp(2-Me)]AW[dF]K-NH2) | 5.02 | –
CC(C)C[C@H](NC(=O)CNC(=O)[C@H](CCC(=O)O)NC(=O)CNC(=O)[C@H](C)N)C(=O)N[C@@H](CC(N)=O)C(=O)N[C@@H](CO)C(=O)N[C@@H](CCC(N)=O)C(=O)N[C@@H](Cc1ccccc1)C(=O)N[C@@H](Cc1c[nH]c2ccccc12)C(=O)N[C@@H](CO)C(=O)N[C@@H](CC(C)C)C(=O)N[C@@H](C)C(=O)N[C@@H](C)C(=O)N1CCC[C@H]1C(=O)N[C@@H](CCC(N)=O)C(=O)N[C@@H](CCCNC(=N)N)C(=O)N[C@@H](Cc1ccccc1)C(N)=O [NPAF] (H-AGEGLNSQFWSLAAPQRF-NH2; N-terminus assumed) | < 5.00 | –
CC(C)C[C@H](NC(=O)[C@@H](N)CO)C(=O)N[C@@H](C)C(=O)N[C@@H](C)C(=O)N1CCC[C@H]1C(=O)N[C@@H](CCC(N)=O)C(=O)N[C@@H](CCCNC(=N)N)C(=O)N[C@@H](Cc1ccccc1)C(N)=O [NPSF] (H-SLAAPQRF-NH2) | < 5.00 | –
CC(C)C[C@H](NC(=O)[C@H](CCCCN)NC(=O)[C@H](CCCN=C(N)N)NC(=O)[C@H](C)NC(=O)[C@H](CO)NC(=O)[C@H](CCCCN)NC(=O)[C@H](CCCN=C(N)N)NC(=O)[C@H](C)NC(=O)CNC(=O)[C@@H](NC(=O)[C@H](Cc1ccccc1)NC(=O)CNC(=O)CNC(=O)[C@@H](N)Cc1ccccc1)[C@@H](C)O)C(=O)N[C@@H](C)C(=O)N[C@@H](CC(N)=O)C(=O)N[C@@H](CCC(N)=O)C(=O)O [Nociceptin] | < 5.00 | –
C[C@@H](O)[C@@H]1NC(=O)[C@H](CCCCN)NC(=O)[C@@H](Cc2c[nH]c3ccccc23)NC(=O)[C@H](Cc2ccccc2)NC(=O)[C@@H](NC(=O)[C@H](N)Cc2ccccc2)CSSC[C@@H](C(=O)N[C@H](CO)[C@@H](C)O)NC1=O [Octreotide] | < 5.00 | –
α-MSH | – | response of MRGX2 receptor (receptor MRGX2): responds
γ-MSH | – | response of MRGX2 receptor (receptor MRGX2): responds
